PMC3975428, “Dimers of G-Protein Coupled Receptors as Versatile Storage and Response Units” (International Journal of Molecular Sciences, 2014)

Columns and labels:
[1] = tested on: 180 kDa heteropentamer and 90 kDa monomer-Gi α of Y2 receptor; settings: 10 mM CHAPS, cited from earlier work
Source text: The stability and affinity of agonist association with CHO-Y2 receptors could also be analyzed at the level of dimers and monomers by extraction and precipitation procedures coupled to competition binding assays (Figure 6). […] The 180 kDa labeled material is not sensitive to ...

[2] = tested on: neuropeptide Y (NPY) receptor dimers; settings: cited from earlier work
Source text: The most studied and probably the most frequent complexes of eukaryotic heptahelical receptors are those with G-protein αβγ heterotrimers. With many GPCR dimers these assemblies survive solubilization by steroid detergents such as digitonin and cholate and could be detected as ~180 kDa heteropentamers by density gradient centrifugation ([15, 16]; see also Figure 1 in this study) and also can be solubilized by acylamine oxide surfactants such as lauryldimethylamine oxide (LDAO) and detected by circular dichroism spectroscopy. The frequently used zwitterionic detergents, e.g., CHAPS (3 ...

[3] = tested on: Y2 receptor aggregates (anterior hypothalamus); test: Y2 receptor aggregates, sedimentation after treatment, rabbit anterior hypothalamus particulates; assay type: biochemical; settings: 20 μM, 15 min at 24 °C, 10%–30% gradient 6 h at 218,000× g
Procedure: (§1) Figure 5. […] Particulates from rabbit kidney (A) and anterior hypothalamus (B) were incubated with 20 μM GγS or 10 μM U73122 for 15 min at 24 °C, sedimented, resuspended, labeled with 50 pM [^125I]hPYY(3–36) for 15 min at 24 °C, resedimented, lysed at 10 mM each digitonin and cholate and sedimented through a 10%–30% linear sucrose gradient for 6 h at 218,000× g and 5 °C, followed by gradient fractionation and counting. TEXT PRINTED IN THE PICTURE: (A) GγS: Bottom count: 10.8% | (A) U73122: Bottom count: 25.4% | (B) GγS: Bottom count: 8.98 % | (B) U73122: Bottom count: 17.4 %
(§2) Rabbit kidney postmitochondrial particulates, rabbit piriform cortex and hypothalamic crude synaptosomes and CHO cell postnuclear particulates were prepared as described previously. After solubilization of particulates at 10 mM each of digitonin and sodium cholate in buffer A or B, the lysates were spun for 10 min at 1000× g to remove debris, and the supernatants sedimented for periods indicated in figure captions at 218,000× gmax through linear 5%–20% sucrose gradients (10 mL, made in buffer A). The gradients were divided by bottom dripping in 23 fractions of 0.45 mL. […]

[4] = tested on: 180 kDa heteropentamer (Y2 receptor dimer, G-protein trimer); test: Nucleotide labeling / conversion of 180 kDa heteropentamer to 90 kDa Gi3α-receptor monomer; assay type: biochemical
Procedure: (§3) The receptors were labeled for 30 min at 25 °C in respective particulates (50 μg protein/assay), employing not more than 50 pM [^125I]-labeled agonist peptides (as stated in individual experiments). Higher molar inputs of agonist peptides would produce significant Gα activation within short exposures (e.g., [24, 53]). The basal assay buffer contained 0.2% proteinase-free bovine serum albumin, 20 mM hepes.NaOH (pH 7.4), 1 mM diisopropylfluorophosphate, 0.04% bacitracin, and 10 μg/mL each of proteinase inhibitors aprotinin, bestatin, chymostatin, leupeptin and pepstatin. Depending on experiment design, this was supplemented by 3 mM CaCl2 and 1 mM MgCl2, (buffer A) or by 1 mM Na EDTA, pH 7.4 (buffer B). The nucleotide site labeling at 200 pM [^35S]GγS was for 30 min at 28 °C after pre-activation for 30 min at 28 °C at 3 μM GDP in the basal buffer with 50 μM EDTA, 100 mM NaCl and 4 mM MgCl2, and without CaCl2 (buffer C). All subsequent operations were carried out at 0–5 °C. The assays were terminated by sedimentation for 10 min at 30,000× gmax, followed by surface wash of the pellets.
as §2, with “mL. The sedimentation positions were calibrated with [^125I]-labeled bovine γ-globulin (158 kDa), human iron-saturated transferrin (75 kDa) and ovalbumin (44 kDa), and with colorized myosin (211 kDa), producing a linear relation of migration to molecular weight (R^2 > 0.99).” for “mL.”

[5] = tested on: Y2 receptor aggregates (rabbit kidney); test: Y2 receptor aggregates, sedimentation after treatment, rabbit kidney particulates; assay type: biochemical; settings: 15 min at 24 °C
Procedure: as §1
(§4) Rabbit kidney postmitochondrial particulates, rabbit piriform cortex and hypothalamic crude synaptosomes and CHO cell postnuclear particulates were prepared as described previously. After solubilization of particulates at 10 mM each of digitonin and sodium cholate in buffer A or B, the lysates were spun for 10 min at 1000× g to remove debris, and the supernatants sedimented for periods indicated in figure captions at 218,000× gmax through linear 5%–20% sucrose gradients (10 mL, made in buffer A). The gradients were divided by bottom dripping in 23 fractions of 0.45 mL. The sedimentation positions were calibrated with [^125I]-labeled bovine γ-globulin (158 kDa), human iron-saturated transferrin (75 kDa) and ovalbumin (44 kDa), and with colorized myosin (211 kDa), producing a linear relation of migration to molecular weight (R^2 > 0.99).

G-protein α subunit = test: Stability of GγS labeling; assay type: biochemical; settings: 4 °C
Procedure: as §3

[6] = tested on: aggregated Y2 receptor material (rabbit kidney and CHO-Y2 particulates); test: Release of aggregated Y2 receptor material (bottom of 5%–20% gradients); assay type: biochemical; settings: 20 μM
Procedure: More than 30% of the Y2 binding in rabbit kidney postmitochondrial particulates, and more than 20% in the CHO-Y2 postnuclear particulates sediments to the bottom of 5%–20% sucrose gradients over 18 h at 218,000× gmax, corresponding to weight in excess of 1000 kDa. A large part of this material sediments at 30,000× gmax over 10 min, and could be considered as aggregated. […] This preliminary experiment points to potential of such procedures in quantitation of effector-associated receptors at the level of dimers and monomers. There also is a promise of gaining more insight on the size and significance of receptor oligomers incorporating more than two receptor monomers.
as §4

Gi/o subunits = settings: hypothalamic vs. rabbit kidney cortex; Table 2; cited from earlier work
Source text: (§5) Figure 2. Rundown of the Y2 agonist is much faster in tissues with large Gi/o content. […] The rabbit kidney cortex has a much lower expression of Gi/o subunits than the anterior hypothalamus (The Bmax for [^35S]GγS binding is more than 20-fold higher in hypothalamic tissue (ref. [24], Table 2). However, the kidney Y2 receptor is expressed at about four times the level of the hypothalamic. The above parameters in the Ca^2+/Mg^2 ...

[7] = tested on: Y2 receptor (rabbit kidney cortex particulates); test: Rundown of Y2 agonist tracer, kidney cortex; assay type: biochemical; settings: 50 pM, 60 min at 25 °C, Ca^2+/Mg^2+ buffer
Source text: as §5, with “Ca^2+/Mg^2+ buffer lead to a much faster transduction with hypothalamic particulates (graph A); and a considerable (58%) rundown of the tracer peptide relative to 1 mM EDTA buffer. In the same assay, the relative rundown is only 12% with kidney particulates (graph B).” for “Ca^2+/Mg^2 ...”
Higher molar inputs of agonist peptides would produce significant Gα activation within short exposures (e.g., [24, 53]). The basal assay buffer contained 0.2% proteinase-free bovine serum albumin, 20 mM hepes.NaOH (pH 7.4), 1 mM diisopropylfluorophosphate, 0.04% bacitracin, and 10 μg/mL each of proteinase inhibitors aprotinin, bestatin, chymostatin, leupeptin and pepstatin. Depending on experiment design, this was supplemented by 3 mM CaCl2 and 1 mM MgCl2, (buffer A) or by 1 mM Na EDTA, pH 7.4 (buffer B). […]

[8] = tested on: Y2 receptor (hypothalamic particulates); test: Rundown of Y2 agonist tracer, anterior hypothalamus; assay type: biochemical, rabbit; settings: 50 pM, 60 min at 25 °C, Ca^2+/Mg^2+ buffer
Source text: as §5, with “Ca^2+/Mg^2+ buffer lead to a much faster transduction with hypothalamic particulates (graph A); and a considerable (58%) rundown of the tracer peptide relative to 1 mM EDTA buffer. In the same assay, the relative rundown is only 12% with kidney particulates (graph B).” for “Ca^2+/Mg^2 ...”
as §3, with “The nucleotide site labeling at 200 pM [^35S]GγS was for 30 min at 28 °C after pre-activation for 30 min at 28 °C at 3 μM GDP in the basal buffer with 50 μM EDTA, 100 mM NaCl and 4 mM MgCl2, and without CaCl2 (buffer C). All subsequent operations were carried out at 0–5 °C. The assays were terminated by sedimentation for 10 min at 30,000× gmax, followed by surface wash of the pellets.” left out

[9] = tested on: Y2 receptor dimers (CHO cells); test: Dimer content of Y2 receptors labeled by [^125I]PYY(3–36) in density gradients; assay type: binding, human receptor in CHO cells; settings: duplicate gradients; for dimer content: labeled 30 min at 25 °C; for content of dimer: particulates from CHO cells, labeled 20 min at 27 °C
Procedure: Figure 1. Stability of agonist-labeled Y2 receptor dimers to incubation at 27 °C and to removal of divalent cations. Duplicate 5%–20% gradients (see Section 3.3) were centrifuged for 18 h at 5 °C. All results are average percentages of total counts in the corresponding gradient fractions from two gradients for each condition. The respective standard errors were in most cases below 10%, and for clarity are not shown. (A) Y2 receptor dimers in particulates from CHO cells are stable to incubation at 27 °C. The incubation of particulate suspension in the assay buffer at 27 °C was for 1 h (followed by 2 h at 0–4 °C) or 3 h, while the control suspension was incubated in ice for 3 h. […] The content of dimer, in % total gradient counts, was 66.2 ± 3.7 for 4 °C control, 63.4 ± 3.4 after preincubation for 1 h at 27 °C, and 64.3 ± 3.4 after preincubation for 3 h at 27 °C; (B) Y2 receptor dimers are not disbanded by removal of divalent cations.
as §3, with “Higher” for “The receptors were labeled for 30 min at 25 °C in respective particulates (50 μg protein/assay), employing not more than 50 pM [^125I]-labeled agonist peptides (as stated in individual experiments). Higher”
as §4

[10] = tested on: rabbit kidney Y2 receptor; test: PYY(3–36) binding to rabbit kidney Y2 receptor (heteropentamer and monomer forms); settings: rabbit kidney particulates, digitonin and cholate lysis
Procedure: The receptors were labeled for 30 min at 25 °C in respective particulates (50 μg protein/assay), employing not more than 50 pM [^125I]-labeled agonist peptides (as stated in individual experiments). […] The basal assay buffer contained 0.2% proteinase-free bovine serum albumin, 20 mM hepes.NaOH (pH 7.4), 1 mM diisopropylfluorophosphate, 0.04% bacitracin, and 10 μg/mL each of proteinase inhibitors aprotinin, bestatin, chymostatin, leupeptin and pepstatin. Depending on experiment design, this was supplemented by 3 mM CaCl2 and 1 mM MgCl2, (buffer A) or by 1 mM Na EDTA, pH 7.4 (buffer B). The nucleotide site labeling at 200 pM [^35S]GγS was for 30 min at 28 °C after pre-activation for 30 min at 28 °C at 3 μM GDP in the basal buffer with 50 μM EDTA, 100 mM NaCl and 4 mM MgCl2, and without CaCl2 (buffer C). All subsequent operations were carried out at 0–5 °C. The assays were terminated by sedimentation for 10 min at 30,000× gmax, followed by surface wash of the pellets.

CHO-Y1 dimers = settings: ADP-ribosylation of Gi type α subunits; cited from earlier work
Source text: (§6) This could be of interest in many physiological conditions. The loss of CHO-Y1 and CHO-Y2 dimers due to neutralization of Gi type α subunits through ADP-ribosylation by pertussis toxin [16, 29] could be viewed as a constitutive equivalent of the reduction shown in Figure 4. In conditions of normal Gi utilization in CHO-Y2, the di ...

CHO-Y2 dimers = settings: ADP-ribosylation of Gi type α subunits; cited from earlier work
Source text: as §6

NPY receptor dimers = settings: via ADP-ribosylation of Gαi subunits; cited from earlier work
Source text: The virtues of oligomerization for GPCRs are many. Oligomers would have much larger ability than monomers to anchor to the membranes, rafts and vesicles. Protein (including the receptor) removal by particulate (proteasomal and/or lysosomal) proteolysis is found to be much less for dimers compared to monomers, as is also observed for enzyme carriers. This is dramatically confirmed by elimination of NPY receptor dimers by pertussis toxin via ADP-ribosylation of Gαi subunits. Association with transducers and effectors could also be enhanced for the dimers. Chances ...

C[C@H](CCC(=O)NCCC[N+](C)(C)CCCS(=O)(=O)[O-])[C@H]1CC[C@H]2[C@@H]3[C@H](O)C[C@@H]4C[C@H](O)CC[C@]4(C)[C@H]3C[C@H](O)[C@]12C [CHAPS, 3-[3-cholamidopropyldimethylammonio]-1-propanesulfonate]
sensitivity of 180 kDa binding ([1]; relative to 90 kDa zone): much less sensitive
effect on 90 kDa zone agonist binding [1]: completely dissociates
effect on NPY receptor dimers [2]: tend to destabilize

Nc1nc2c(ncn2[C@@H]2O[C@H](COP(=O)(O)OP(=O)(O)OP(O)(O)=S)[C@@H](O)[C@H]2O)c(=O)[nH]1 [GγS, Guanosine 5′-O-(γ-thiotriphosphate)]
Bottom count [3]: 8.98%
labeling of G-protein trimer in 180 kDa heteropentamer [4]: not labeled
conversion of 180 kDa heteropentamer ([4]; 1–5 mM Mg^2+, micromolar GDP or GγS): does convert to immunoprecipitable 90 kDa Gi3α-receptor monomer
main form yielded from Y2 receptor aggregates ([5]; particulates from rabbit tissues (kidney and anterior hypothalamus), GγS 20 μM or U73122 10 μM): mainly Gi-Y2 monomer
Bottom count ([5]; rabbit kidney, 20 μM, 10%–30% gradient 6 h at 218,000× g): 10.8%
stability of G-protein α subunit labeling (G-protein α subunit): stable at 4 °C
form of released material [6]: largely in the form of activated monomers
part of aggregated material released [6]: A considerable part

Nc1nc2c(ncn2C2OC(COP(=O)(O)OP(=O)(O)OP(O)(O)=[35S])C(O)C2O)c(=O)[nH]1 (centres unmarked) [[^35S]GγS, [^35S]guanosine 5′-(γ-thio)triphosphate]
Bmax for binding, hypothalamic relative to kidney tissue (Gi/o subunits): more than 20 fold

[^125I]PYY(3–36): Monoiodinated HPLC-purified [^125I]human PYY(3–36), labeled Y2 agonist
rundown of the tracer peptide relative to 1 mM EDTA buffer [7]: 12%
rundown of the tracer peptide relative to 1 mM EDTA buffer [8]: 58%
dimer content ([9]; buffer A (3 mM CaCl2, 1 mM MgCl2)): 65.9 ± 4.7 % gradient counts
dimer content ([9]; buffer B (1 mM Na EDTA, divalent cations removed)): 60.8 ± 4.6 % gradient counts
content of dimer ([9]; 4 °C control (3 h in ice)): 66.2 ± 3.7 % total gradient counts
content of dimer ([9]; preincubation 1 h at 27 °C (then 2 h at 0–4 °C)): 63.4 ± 3.4 % total gradient counts
content of dimer ([9]; preincubation 3 h at 27 °C): 64.3 ± 3.4 % total gradient counts
degradation of the receptor-bound tracer [10]: very low

pertussis toxin
effect on CHO-Y1 dimers (CHO-Y1 dimers): loss
effect on CHO-Y2 dimers (CHO-Y2 dimers): loss
effect on NPY receptor dimers (NPY receptor dimers): elimination
